Biological target: MAPK14 (human) (UniProt Q16539)
Test: Inhibition of LPS Stimulated TNF Production by U937 Cells
Conditions: for inhibition: concentration not given here

MAPK14 (human), sequence (Q16539 whole entry, looked up): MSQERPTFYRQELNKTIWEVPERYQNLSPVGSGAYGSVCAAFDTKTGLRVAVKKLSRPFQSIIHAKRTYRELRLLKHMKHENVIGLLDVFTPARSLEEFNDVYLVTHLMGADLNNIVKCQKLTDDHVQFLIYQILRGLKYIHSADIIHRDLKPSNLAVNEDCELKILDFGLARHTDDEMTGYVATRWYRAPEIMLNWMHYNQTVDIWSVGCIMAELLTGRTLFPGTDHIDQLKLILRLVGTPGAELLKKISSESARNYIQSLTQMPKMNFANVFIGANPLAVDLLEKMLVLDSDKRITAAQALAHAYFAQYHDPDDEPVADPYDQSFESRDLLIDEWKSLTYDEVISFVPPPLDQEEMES

| inhibition | IC50 | SMILES |
| --- | --- | --- |
| 26% | – | O=C(NCc1[nH]nc(-c2ccc(F)cc2)c1-c1ccncc1)c1cc(F)cc(C(F)(F)F)c1 |
| 54% | – | O=C(NCc1[nH]nc(-c2ccc(F)cc2)c1-c1ccncc1)c1ccc(F)cc1F |
| 49% | – | CCN(CC)C(=O)N[C@H](C)c1[nH]nc(-c2ccc(F)cc2)c1-c1ccncc1 |
| 28% | – | CNC(=O)CC[C@H](NC(=O)C1CC1)c1[nH]nc(-c2ccc(F)cc2)c1-c1ccncc1 |
| 18% | – | O=C(NCc1[nH]nc(-c2ccc(F)cc2)c1-c1ccncc1)c1sc2ccccc2c1Cl |
| 36% | – | O=C(NCc1[nH]nc(-c2ccc(F)cc2)c1-c1ccncc1)c1c(F)ccc(F)c1F |
| – | 1510 nM | C[C@@H](NC(N)=O)c1[nH]nc(-c2ccc(F)cc2)c1-c1ccncc1 |
| 14% | – | CCOC(=O)c1cccc(NC(=O)NCc2[nH]nc(-c3ccc(F)cc3)c2-c2ccncc2)c1 |
| – | 440 nM | C[C@@H](NS(C)(=O)=O)c1[nH]nc(-c2ccc(F)cc2)c1-c1ccncc1 |
| 36% | – | O=C(NCCCc1[nH]nc(-c2ccc(F)cc2)c1-c1ccncc1)NCC1CC1 |
| – | 190 nM | CC(=O)NCc1[nH]nc(-c2ccc(F)cc2)c1-c1ccncc1 |
| – | 5000 nM | CCCCS(=O)(=O)NCc1[nH]nc(-c2ccc(F)cc2)c1-c1ccncc1 |
| 70% | – | C[C@@H](NC(=O)c1cccs1)c1[nH]nc(-c2ccc(F)cc2)c1-c1ccncc1 |
| 32% | – | O=C(NCc1[nH]nc(-c2ccc(F)cc2)c1-c1ccncc1)c1cccc(Cl)c1 |
| 45% | – | CC(C)OC(=O)N[C@H](C)c1[nH]nc(-c2ccc(F)cc2)c1-c1ccncc1 |
| – | 222 nM | Cc1[nH]nc(-c2ccc(F)cc2)c1-c1ccncc1 |
| 9% | – | COC(=O)CCCCCCC(=O)NCc1[nH]nc(-c2ccc(F)cc2)c1-c1ccncc1 |
| 2% | – | O=C(NCc1[nH]nc(-c2ccc(F)cc2)c1-c1ccncc1)c1ccccn1 |
| 11% | – | Cc1ccccc1C(=O)NCc1[nH]nc(-c2ccc(F)cc2)c1-c1ccncc1 |
| 25% | 5000 nM | C[C@@H](NC(=O)NCCc1[nH]nc(-c2ccc(F)cc2)c1-c1ccncc1)c1ccccc1 |
| 10% | – | O=C(NCCCc1[nH]nc(-c2ccc(F)cc2)c1-c1ccncc1)NCc1ccccn1 |
| – | 90 nM | Fc1ccc(-c2[nH]nc(NCCCN3CCOCC3)c2-c2ccncc2)cc1 |

The next lines start with the compound.

| SMILES | inhibition | IC50 |
| --- | --- | --- |
| O=S(=O)(N[C@H](Cc1ccccc1)c1[nH]nc(-c2ccc(F)cc2)c1-c1ccncc1)c1cccs1 | 29% | – |
| Cc1[nH]nc(-c2ccc(Br)cc2)c1-c1ccncc1 | – | 244 nM |
| CC(C)c1ccc(S(=O)(=O)N[C@@H](C)c2[nH]nc(-c3ccc(F)cc3)c2-c2ccncc2)cc1 | 76% | – |
| O=S(=O)(c1ccccc1C(F)(F)F)N1CCC(c2[nH]nc(-c3ccc(F)cc3)c2-c2ccncc2)CC1 | 29% | – |
| O=S(=O)(NCc1[nH]nc(-c2ccc(F)cc2)c1-c1ccncc1)c1ccc(-c2ccon2)s1 | 89% | – |
| COc1ccccc1CCNC(=O)Cn1nc(-c2ccc(F)cc2)c(-c2ccncc2)c1C | 36% | – |
| O=S(=O)(NCc1[nH]nc(-c2ccc(F)cc2)c1-c1ccncc1)c1cccc(Cl)c1Cl | 30% | – |
| CNC(=O)CC[C@H](NC(=O)Cc1cccc(OC)c1)c1[nH]nc(-c2ccc(F)cc2)c1-c1ccncc1 | 3% | – |
| COc1ccc(Cl)cc1S(=O)(=O)N[C@@H](C)c1[nH]nc(-c2ccc(F)cc2)c1-c1ccncc1 | 76% | – |
| C[C@H](NC(=O)c1cc(F)ccc1F)c1[nH]nc(-c2ccc(F)cc2)c1-c1ccncc1 | 44% | – |
| Cc1cccc(Cl)c1S(=O)(=O)N[C@H](C)c1[nH]nc(-c2ccc(F)cc2)c1-c1ccncc1 | 77% | – |
| COc1ccc(S(=O)(=O)N[C@H](C)c2[nH]nc(-c3ccc(F)cc3)c2-c2ccncc2)cc1OC | 25% | – |
| O=S(=O)(NCc1[nH]nc(-c2ccc(F)cc2)c1-c1ccncc1)c1c(Cl)cccc1Cl | 43% | – |
| C[C@@H](NC(=O)c1ccc(C(F)(F)F)cc1F)c1[nH]nc(-c2ccc(F)cc2)c1-c1ccncc1 | 48% | – |
| Cc1cccc(C)c1NC(=O)N[C@@H](C)c1[nH]nc(-c2ccc(F)cc2)c1-c1ccncc1 | 42% | – |
| C[C@H](NS(=O)(=O)c1cccc2cccnc12)c1[nH]nc(-c2ccc(F)cc2)c1-c1ccncc1 | 58% | – |
| Cc1c(Cl)cccc1S(=O)(=O)N[C@@H](C)c1[nH]nc(-c2ccc(F)cc2)c1-c1ccncc1 | 54% | – |
| C[C@@H](NS(=O)(=O)c1ccc(-c2ccon2)s1)c1[nH]nc(-c2ccc(F)cc2)c1-c1ccncc1 | 95% | – |
| CN(C(=O)N[C@@H](Cc1ccccc1)c1[nH]nc(-c2ccc(F)cc2)c1-c1ccncc1)c1ccccc1 | – | < 1000 nM |
| C[C@H](NC(=O)c1ccc(F)c(F)c1)c1[nH]nc(-c2ccc(F)cc2)c1-c1ccncc1 | 52% | – |
| C[C@H](NS(=O)(=O)c1ccccc1S(C)(=O)=O)c1[nH]nc(-c2ccc(F)cc2)c1-c1ccncc1 | 73% | – |

| SMILES | inhibition | IC50 |
| --- | --- | --- |
| Cc1ccc(S(C)(=O)=O)cc1S(=O)(=O)NCc1[nH]nc(-c2ccc(F)cc2)c1-c1ccncc1 | 23% | – |
| Fc1ccc(CNc2cc(-c3cnn(CCN4CCOCC4)c3-c3ccc(F)cc3)ccn2)cc1 | – | 450 nM |
| C[C@@H](NC(=O)c1ccc(F)cc1C(F)(F)F)c1[nH]nc(-c2ccc(F)cc2)c1-c1ccncc1 | 90% | – |
| Cc1ccc(C)c(S(=O)(=O)N[C@@H](C)c2[nH]nc(-c3ccc(F)cc3)c2-c2ccncc2)c1 | 80% | – |
| CC(C)(C)C(=O)N[C@@H](Cc1ccccc1)c1[nH]nc(-c2ccc(F)cc2)c1-c1ccncc1 | 22% | – |
| O=C(c1ccccn1)N1CCC(c2[nH]nc(-c3ccc(F)cc3)c2-c2ccncc2)CC1 | – | 250 nM |
| C[C@H](NS(=O)(=O)c1ccccc1Cl)c1[nH]nc(-c2ccc(F)cc2)c1-c1ccncc1 | 94% | – |
| C[C@@H](NS(=O)(=O)c1ccc(S(=O)(=O)c2ccccc2)s1)c1[nH]nc(-c2ccc(F)cc2)c1-c1ccncc1 | 88% | – |
| C[C@@H](NC(=O)c1c(F)cc(F)cc1F)c1[nH]nc(-c2ccc(F)cc2)c1-c1ccncc1 | 75% | – |
| COc1ccc(NC(=O)N[C@@H](C)c2[nH]nc(-c3ccc(F)cc3)c2-c2ccncc2)c(OC)c1 | 21% | – |
| COc1ccccc1C(=O)N[C@H](C)c1[nH]nc(-c2ccc(F)cc2)c1-c1ccncc1 | 23% | – |
| C[C@@H](NS(=O)(=O)c1ccc(F)cc1Cl)c1[nH]nc(-c2ccc(F)cc2)c1-c1ccncc1 | 81% | – |
| CN(C)c1cccc2c(S(=O)(=O)N3CCC(c4[nH]nc(-c5ccc(F)cc5)c4-c4ccncc4)CC3)cccc12 | 18% | – |
| COc1ccc(OC)c(S(=O)(=O)N[C@H](C)c2[nH]nc(-c3ccc(F)cc3)c2-c2ccncc2)c1 | 81% | – |
| Cc1c(C)c(S(=O)(=O)N[C@@H](C)c2[nH]nc(-c3ccc(F)cc3)c2-c2ccncc2)c(C)c2c1OC(C)(C)CC2 | 87% | – |
| C[C@H](NS(=O)(=O)c1ccc(F)cc1Cl)c1[nH]nc(-c2ccc(F)cc2)c1-c1ccncc1 | 85% | – |
| C[C@H](NC(=O)c1ccc(F)c(F)c1F)c1[nH]nc(-c2ccc(F)cc2)c1-c1ccncc1 | 18% | – |
| Cc1cccc(-c2n[nH]cc2-c2ccnc(C)c2)c1 | – | 301 nM |
| C[C@@H](NC(=O)c1cccc(C#N)c1)c1[nH]nc(-c2ccc(F)cc2)c1-c1ccncc1 | 37% | – |
| CNC(=O)CC[C@H](NC(=O)c1cccc(Br)c1)c1[nH]nc(-c2ccc(F)cc2)c1-c1ccncc1 | – | > 1000 nM |
| Cc1n[nH]c(-c2cccc(Cl)c2)c1-c1ccncc1 | – | 74 nM |
